Here are results for 3 compounds from patent US8608842B2, “Infrared absorbing composition, infrared absorbing ink, recorded article, image recording method, and image detecting method” (FUJIFILM Corporation, priority 2010, dated 2013).

Holding throughout (assay type): physicochemical
A short description of series [1]: Solubility of IR coloring material in toluene at 25° C. The following applies: toluene, 25° C. The protocol:
Specifics are as follows.
First, a tetrahydrofuran (THF) solution prepared by adding the IR coloring material to TI-IF is measured by a spectrophotometer and a calibration curve is constructed. Next, a liquid is prepared by adding the IR coloring material to toluene to the level that there is a part of the coloring material left undissolved. The resulting liquid is subjected to ultrasonication for 10 minutes while being maintained at 25° C., and allowed to stand overnight at 25° C. The THF solution obtained after the standing is filtered using a 0.2 μm filter. The filtrate is diluted so that it falls within the linear range of the calibration curve, the absorbance is measured, and quantification is made using the calibration curve.
The solubility shown in Table 1 was measured according to the method described below. Specifics are as follows.
First, the THF solution prepared by adding the IR coloring material to tetrahydrofuran (THF) was measured by a spectrophotometer, and the calibration curve was established. Next, a liquid was prepared by adding the IR coloring material to toluene to the level that there is a part of coloring material left undissolved. The resulting liquid was subjected to ultrasonication for 10 minutes while being kept at 25° C., and allowed to stand overnight at 25° C. The THF solution obtained after the standing was filtered using a 0.2 μm filter. The filtrate was diluted so that it falls within the linear range of the calibration curve, and the absorbance was measured. Based on the measured value, the solubility was quantified using the calibration curve.

Series [2] in a line: Ultraviolet curable ink of Example 4: reflected light of mark for copy protection, before and after xenon irradiation. The following applies: xenon light of 70,000 lux, 72 hours; variation compared to the value before irradiation. The protocol:
By mixing the components of the composition shown below, an ultraviolet curable ink having an infrared absorbing property was prepared.
By using the ultraviolet curable ink thus obtained, a mark for copy protection was printed on the same base paper as that used in Example 1 by Gravure printing. On top of the printed mark for copy protection, each of the three kinds of a process ink (FDOL Yellow, FDOL Magenta, and FDOL Cyan, trade names, manufactured by TOYO INK MFG. CO., LTD.) was applied as a layer by Gravure printing, or a mixture ink in which the three kinds of a process ink are mixed was applied as a layer by Gravure printing to hide the mark for copy protection, thus obtaining a printed article.
The mark for copy protection that is hidden by the process ink was irradiated with infrared light using a linear sensor (trade name: TCD1500C, manufactured by Toshiba) in which the infrared cut-off filter of linear sensor was replaced with an infrared transmitting filter (trade name: IR83, manufactured by Hoya) as a detection device, and the reflected light was detected simultaneously.
The reflection light intensity in the area of the mark for copy protection at the time of detecting the mark was divided by the reflection light intensity of the area outside the mark for copy protection. The resulting value of the comparative infrared absorbing agent A was set to 1, and a ratio of the resulting value with respect to the resulting value of the comparative infrared absorbing agent A was calculated for each compound.
In addition, the obtained printed article was irradiated continuously with xenon light of 70,000 lux for 72 hours by using a Xenon lamp. After the irradiation, similar to above, the reflection light intensity of the area of the mark for copy protection was divided by the reflection light intensity of the area outside the mark for copy protection, and the variation ratio [%] compared to the value before the irradiation was calculated to use it as an index for evaluation of light resistance.

Series [3] in a line: Bar code pattern reading (PCS) of printed article before and after xenon light irradiation (light resistance). The following applies: xenon light of 70,000 lux, 200 hours. The protocol: By mixing the components of the composition shown below, the infrared absorbing printing ink (1) was prepared.
By using each of the infrared absorbing printing ink obtained above, a bar code pattern was formed on a regular paper (trade name: MP-120, manufactured by PLUS Corporation), i.e., a base paper, by Gravure printing.
Subsequently, on the formed bar code pattern, another bar code pattern was additionally formed by using the infrared absorbing ink (2) having the composition shown below.
Next, on top of the bar code patterns formed by disposing two layers, three kinds of process inks having infrared transmittance (FDOL Yellow, FDOL Magenta, and FDOL Cyan, manufactured by TOYO INK MFG. CO., LTD. (trade names, manufactured by TOYO INK MFG. CO., LTD.) were further applied by Gravure printing to form a colored layer made of three visible colors (cyan, magenta, and yellow). As a result, a printed article having a bar code pattern disposed inside the matter was produced.
Two kinds of semiconductor laser beam having wavelengths of 830 nm and 905 nm respectively were irradiated onto the thus obtained printed article, and the detection was made by using a filter which cuts off the emission light having wavelength of 950 nm or less. As a result, it was possible to detect the pattern formed by the infrared absorbing ink.
Subsequently, xenon light of 70,000 lux was irradiated continuously for 200 hours onto the printed article by using a xenon lamp. After that, the reading state of the bar code pattern after the irradiation was evaluated. For the evaluation, PCS (print•contrast•signal) of 0.6 or more was evaluated as “good,” and PCS (print•contrast•signal) of less than 0.6 was evaluated as “bad.” The evaluation results are shown in Table 2 below.
The printed article was prepared in the same manner as Example 1 except that the solvent (a mixture solvent of toluene and methyl isobutyl ketone) in the composition of the infrared absorbing ink (1) and (2) is replaced with n-octane (SP value: 7.6), butyl acetate (SP value: 8.5), or isopropyl alcohol (IPA; SP values: 11.5), and evaluated.
The comparative printed article was prepared in the same manner as Example 1 except that the solvent (a mixture solvent of toluene and methyl isobutyl ketone) in the composition of the infrared absorbing ink (1) and (2) is replaced with n-pentane (SP value: 7.0; Example 2) or ethanol (SP value: 12.7; Example 3), and evaluated.

[4] abbreviates: ink solvent toluene/methyl isobutyl ketone = 70/30.

Turning to `Nc1ccccc1Sc1c2c(c(Sc3ccccc3N)c3c1C1=Nc4c5c(Sc6ccccc6N)c6c(c(Sc7ccccc7N)c5c5[n]4[V](=[O])[n]4c(c7c(Sc8ccccc8N)c8c(c(Sc9ccccc9N)c7c4=NC4=NC(=N5)c5c(Sc7ccccc7N)c7c(c(Sc9ccccc9N)c54)NC4C=CC=CC4S7)SC4C=CC=CC4N8)=NC3=N1)NC1C=CC=CC1S6)SC1C=CC=CC1N2` (centres unmarked) [Compound 71], in series [1], the “Solubility [mg/ml] Solvent: toluene” value was 16 mg/mL. Moreover, the “Variation amount after irradiation [%]” value in series [2] was 3%. Besides, the Reading after irradiation entry is recorded as “Bad (PCS (print•contrast•signal) of less than 0.6 was evaluated as “bad.”)” in series [3] (Example 2, ink solvent n-pentane (SP value: 7.0)); “Bad (PCS (print•contrast•signal) of less than 0.6 was evaluated as “bad.”)” in series [3] (Example 3, ink solvent ethanol (SP value: 12.7)); “Good (PCS (print•contrast•signal) of 0.6 or more was evaluated as “good,”)” in series [3] (ink solvent IPA (SP value: 11.5)); “Good (PCS (print•contrast•signal) of 0.6 or more was evaluated as “good,”)” in series [3] (ink solvent butyl acetate (SP value: 8.5)); “Good (PCS (print•contrast•signal) of 0.6 or more was evaluated as “good,”)” in series [3] (ink solvent n-octane (SP value: 7.6)); “Good (PCS (print•contrast•signal) of 0.6 or more was evaluated as “good,”)” in series [3] (setting [4]).

Take `CCCCCCCCN1/C(=C/C=C/C=C/C=C/C2=[N+](CCCCCCCC)c3ccc4ccccc4c3C2(C)C)C(C)(C)c2c1ccc1ccccc21.Cc1ccc(S(=O)(=O)[O-])cc1` [reference compound]: the “Solubility [mg/ml] Solvent: toluene” value in series [1] is 43 mg/mL. Besides, the “Variation amount after irradiation [%]” value in series [2] is reported as 21%. For the same compound, in series [3] (setting [4]), the Reading after irradiation result is recorded as “Bad (PCS (print•contrast•signal) of less than 0.6 was evaluated as “bad.”)”.

As to “N,N,N′,N′-tetrakis(p-di-n-butylaminophenyl)-p-phenylene diaminium perchlorate salt [reference compound]”, the “Solubility [mg/ml] Solvent: toluene” value in series [1] is 32 mg/mL. For the same compound, the “Variation amount after irradiation [%]” value in series [2] is 16%. For the same compound, in series [3] (setting [4]), the Reading after irradiation entry is on record as “Bad (PCS (print•contrast•signal) of less than 0.6 was evaluated as “bad.”)”.
